Measurements published in PubChem BioAssay AID250 (DTP/NCI, 2004).
Where “and” joins values, the source holds several entries; their conditions need not be identical. Equal values may be shown once. Inconclusive results and toxic doses are left out.

System: BDF1 mice, L1210 leukemia sc, survival T/C
Assay: NCI In Vivo Anticancer Drug Screen. Data for tumor model L1210 Leukemia (subcutaneous) in B6D2F1 (BDF1) mice
Conditions: higher = longer survival
Method in brief: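 Tumors were transplanted into mice, the animals were treated with compound, survival or tumor size was then measured, and treated values were divided by vehicle-control values.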

[1] = endpoint: median survival time, dose: 8.4 mg/kg/injection, schedule: Q01DX Z (sc), vehicle: methylcellulose (MC)
[2] = endpoint: median survival time, dose: 14.0 mg/kg/injection, schedule: Q01DX Z (sc), vehicle: methylcellulose (MC)
[3] = endpoint: median survival time, dose: 23.0 mg/kg/injection, schedule: Q01DX Z (sc), vehicle: methylcellulose (MC)
[4] = endpoint: median survival time, dose: 39.0 mg/kg/injection, schedule: Q01DX Z (sc), vehicle: methylcellulose (MC)
[5] = endpoint: median survival time, dose: 65.0 mg/kg/injection, schedule: Q01DX Z (sc), vehicle: methylcellulose (MC)
[6] = endpoint: median survival time, dose: 108.0 mg/kg/injection, schedule: Q01DX Z (sc), vehicle: methylcellulose (MC)

CS(=O)(=O)OCC(O)C(O)C(O)C(O)COS(C)(=O)=O (stereo not drawn)
T/C [1]: 103 % of control | T/C [2]: 100 % of control | T/C [3]: 96 % of control | T/C [4]: 100 % of control | T/C [5]: 100 % of control | T/C [6]: 100 % of control | T/C (endpoint: median survival time, dose: 180.0 mg/kg/injection, schedule: Q01DX Z (sc), vehicle: methylcellulose (MC)): 103 % of control | T/C (endpoint: median survival time, dose: 300.0 mg/kg/injection, schedule: Q01DX Z (sc), vehicle: methylcellulose (MC)): 107 % of control | T/C (endpoint: median survival time, dose: 500.0 mg/kg/injection, schedule: Q01DX Z (sc), vehicle: methylcellulose (MC)): 103 % of control

O[C@H](CN1CC1)[C@@H](O)CN1CC1
T/C (endpoint: median survival time, dose: 0.14 mg/kg/injection, schedule: Q01DX Z (sc), vehicle: saline): 100 % of control | T/C (endpoint: median survival time, dose: 0.22 mg/kg/injection, schedule: Q01DX Z (sc), vehicle: saline): 111 % of control | T/C (endpoint: median survival time, dose: 0.23 mg/kg/injection, schedule: Q01DX Z (sc), vehicle: saline): 111 % of control | T/C (endpoint: median survival time, dose: 0.6 mg/kg/injection, schedule: Q01DX Z (sc), vehicle: saline): 177 % of control | T/C (endpoint: median survival time, dose: 0.65 mg/kg/injection, schedule: Q01DX Z (sc), vehicle: saline): 183 % of control | T/C (endpoint: median survival time, dose: 1.0 mg/kg/injection, schedule: Q01DX Z (sc), vehicle: saline): 172 % of control | T/C (endpoint: median survival time, dose: 1.08 mg/kg/injection, schedule: Q01DX Z (sc), vehicle: saline): 155 % of control | T/C (endpoint: median survival time, dose: 2.8 mg/kg/injection, schedule: Q01DX Z (sc), vehicle: saline): 122 % of control

Nc1nc(N)c2nc(CN(CCO)c3ccc(C(=O)NC(CCC(=O)O)C(=O)O)cc3)cnc2n1 (stereo not drawn)
T/C (endpoint: mean survival time, dose: 2.0 mg/kg/injection, schedule: Q01DX009 (ip), vehicle: sodium bicarbonate): 160 % of control | T/C (endpoint: mean survival time, dose: 4.0 mg/kg/injection, schedule: Q01DX009 (ip), vehicle: sodium bicarbonate): 160 % of control | T/C (endpoint: mean survival time, dose: 8.0 mg/kg/injection, schedule: Q01DX009 (ip), vehicle: sodium bicarbonate): 191 % of control | T/C (endpoint: mean survival time, dose: 8.0 mg/kg/injection, schedule: Q04DX003 (ip), vehicle: sodium bicarbonate): 123 % of control | T/C (endpoint: mean survival time, dose: 16.0 mg/kg/injection, schedule: Q01DX009 (ip), vehicle: sodium bicarbonate): 154 % of control

CS(=O)(=O)Nc1ccc(Nc2c3ccccc3nc3cc([N+](=O)[O-])ccc23)cc1
T/C (endpoint: mean survival time, dose: 1.25 mg/kg/injection, schedule: Q01DX009 (ip), vehicle: Klucel (hydroxypropylcellulose) (HPC)): 108 % of control | T/C (endpoint: mean survival time, dose: 1.25 mg/kg/injection, schedule: Q01DX009 (sc), vehicle: Klucel (hydroxypropylcellulose) (HPC)): 121 % of control | T/C (endpoint: mean survival time, dose: 2.5 mg/kg/injection, schedule: Q01DX009 (ip), vehicle: Klucel (hydroxypropylcellulose) (HPC)): 107 % of control | T/C (endpoint: mean survival time, dose: 2.5 mg/kg/injection, schedule: Q01DX009 (sc), vehicle: Klucel (hydroxypropylcellulose) (HPC)): 108 % of control | T/C (endpoint: mean survival time, dose: 5.0 mg/kg/injection, schedule: Q01DX009 (ip), vehicle: Klucel (hydroxypropylcellulose) (HPC)): 106 % of control | T/C (endpoint: mean survival time, dose: 5.0 mg/kg/injection, schedule: Q01DX009 (sc), vehicle: Klucel (hydroxypropylcellulose) (HPC)): 112 % of control

CN(Cc1cnc2nc(N)nc(N)c2n1)c1c(Cl)cc(C(=O)NC(CCC(=O)O)C(=O)O)cc1Cl (stereo not drawn)
T/C (endpoint: median survival time, dose: 14.0 mg/kg/injection, schedule: Q01DX Z (sc), vehicle: sodium bicarbonate): 245 % of control | T/C (endpoint: median survival time, dose: 23.0 mg/kg/injection, schedule: Q01DX Z (sc), vehicle: sodium bicarbonate): 259 % of control | T/C (endpoint: median survival time, dose: 39.0 mg/kg/injection, schedule: Q01DX Z (sc), vehicle: sodium bicarbonate): 427 % of control | T/C (endpoint: median survival time, dose: 100.0 mg/kg/injection, schedule: Q01DX Z (sc), vehicle: other): 154 % of control

COS(C)(=O)=O
T/C (endpoint: median survival time, dose: 23.0 mg/kg/injection, schedule: Q01DX Z (sc), vehicle: water): 100 % of control | T/C (endpoint: median survival time, dose: 39.0 mg/kg/injection, schedule: Q01DX Z (sc), vehicle: water): 94 % of control | T/C (endpoint: median survival time, dose: 65.0 mg/kg/injection, schedule: Q01DX Z (sc), vehicle: water): 100 % of control

O=C(O)CS
T/C [4]: 100 % of control | T/C [5]: 100 % of control | T/C [6]: 100 % of control

C[C@@H](CN1CC(=O)NC(=O)C1)N1CC(=O)NC(=O)C1
T/C (endpoint: median survival time, dose: 8.0 mg/kg/injection, schedule: Q01DX009 (ip), vehicle: water): 103 % of control | T/C (endpoint: median survival time, dose: 16.0 mg/kg/injection, schedule: Q01DX009 (ip), vehicle: water): 105 % of control and 115 % of control | T/C (endpoint: median survival time, dose: 32.0 mg/kg/injection, schedule: Q01DX009 (ip), vehicle: water): 114 % of control | T/C (endpoint: median survival time, dose: 128.0 mg/kg/injection, schedule: Q01DX009 (ip), vehicle: water): 150 % of control | T/C (endpoint: median survival time, dose: 512.0 mg/kg/injection, schedule: Q01DX009 (ip), vehicle: water): 121 % of control

ClCCn1c2ccccc2c2ccccc21
T/C (endpoint: median survival time, dose: 5.0 mg/kg/injection, schedule: Q01DX Z (sc), vehicle: methylcellulose (MC)): 100 % of control | T/C [1]: 100 % of control | T/C [2]: 100 % of control | T/C [3]: 100 % of control | T/C [4]: 100 % of control | T/C [5]: 100 % of control | T/C [6]: 100 % of control

Nc1cc(=O)[nH][nH]1
T/C (endpoint: median survival time, dose: 300.0 mg/kg/injection, schedule: Q01DX Z (sc), vehicle: saline): 100 % of control | T/C (endpoint: median survival time, dose: 500.0 mg/kg/injection, schedule: Q01DX Z (sc), vehicle: saline): 105 % of control | T/C (endpoint: median survival time, dose: 833.0 mg/kg/injection, schedule: Q01DX Z (sc), vehicle: saline): 90 % of control | T/C (endpoint: median survival time, dose: 1388.0 mg/kg/injection, schedule: Q01DX Z (sc), vehicle: saline): 90 % of control

O=C1CN(CCN2CC(=O)NC(=O)C2)CC(=O)N1
T/C (endpoint: median survival time, dose: 8.4 mg/kg/injection, schedule: Q03HX024 (sc), vehicle: Klucel (hydroxypropylcellulose) (HPC)): 160 % of control | T/C (endpoint: median survival time, dose: 12.5 mg/kg/injection, schedule: Q01DX009 (ip), vehicle: steriod suspending solution): 115 % of control | T/C (endpoint: median survival time, dose: 12.5 mg/kg/injection, schedule: Q01DX009 (sc), vehicle: steriod suspending solution): 110 % of control | T/C (endpoint: median survival time, dose: 23.0 mg/kg/injection, schedule: Q03HX024 (sc), vehicle: Klucel (hydroxypropylcellulose) (HPC)): 165 % of control | T/C (endpoint: median survival time, dose: 25.0 mg/kg/injection, schedule: Q01DX009 (ip), vehicle: steriod suspending solution): 120 % of control | T/C (endpoint: median survival time, dose: 25.0 mg/kg/injection, schedule: Q01DX009 (sc), vehicle: steriod suspending solution): 100 % of control | T/C (endpoint: median survival time, dose: 39.0 mg/kg/injection, schedule: Q03HX024 (sc), vehicle: Klucel (hydroxypropylcellulose) (HPC)): 120 % of control | T/C (endpoint: median survival time, dose: 65.0 mg/kg/injection, schedule: Q03HX024 (sc), vehicle: Klucel (hydroxypropylcellulose) (HPC)): 120 % of control | T/C (endpoint: median survival time, dose: 100.0 mg/kg/injection, schedule: Q01DX009 (ip), vehicle: steriod suspending solution): 165 % of control | T/C (endpoint: median survival time, dose: 100.0 mg/kg/injection, schedule: Q01DX009 (sc), vehicle: steriod suspending solution): 105 % of control and 120 % of control | T/C (endpoint: median survival time, dose: 100.0 mg/kg/injection, schedule: Q04DX003 (ip), vehicle: steriod suspending solution): 105 % of control | T/C (endpoint: median survival time, dose: 100.0 mg/kg/injection, schedule: Q04DX003 (sc), vehicle: steriod suspending solution): 100 % of control and 110 % of control | T/C (endpoint: median survival time, dose: 200.0 mg/kg/injection, schedule: Q01DX009 (ip), vehicle: steriod suspending solution): 100 % of control | T/C (endpoint: median survival time, dose: 200.0 mg/kg/injection, schedule: Q01DX009 (sc), vehicle: steriod suspending solution): 90 % of control | T/C (endpoint: median survival time, dose: 200.0 mg/kg/injection, schedule: Q04DX003 (ip), vehicle: steriod suspending solution): 100 % of control | T/C (endpoint: median survival time, dose: 200.0 mg/kg/injection, schedule: Q04DX003 (sc), vehicle: steriod suspending solution): 105 % of control and 115 % of control | T/C (endpoint: median survival time, dose: 300.0 mg/kg/injection, schedule: Q01DX009 (sc), vehicle: Klucel (hydroxypropylcellulose) (HPC)): 120 % of control | T/C (endpoint: median survival time, dose: 400.0 mg/kg/injection, schedule: Q04DX003 (sc), vehicle: steriod suspending solution): 100 % of control | T/C (endpoint: median survival time, dose: 500.0 mg/kg/injection, schedule: Q01DX009 (sc), vehicle: Klucel (hydroxypropylcellulose) (HPC)): 120 % of control | T/C (endpoint: median survival time, dose: 800.0 mg/kg/injection, schedule: Q04DX003 (sc), vehicle: steriod suspending solution): 100 % of control and 120 % of control

CCN(CC)C(=O)c1cccnc1
T/C (endpoint: median survival time, dose: 28.0 mg/kg/injection, schedule: Q01DX Z (sc), vehicle: water): 109 % of control | T/C (endpoint: median survival time, dose: 46.7 mg/kg/injection, schedule: Q01DX Z (sc), vehicle: water): 100 % of control | T/C (endpoint: median survival time, dose: 77.8 mg/kg/injection, schedule: Q01DX Z (sc), vehicle: water): 100 % of control | T/C (endpoint: median survival time, dose: 130.0 mg/kg/injection, schedule: Q01DX Z (sc), vehicle: water): 100 % of control | T/C (endpoint: median survival time, dose: 216.0 mg/kg/injection, schedule: Q01DX Z (sc), vehicle: water): 100 % of control

CS(=O)(=O)Nc1ccc(Nc2c3ccccc3nc3ccccc23)cc1
T/C (endpoint: mean survival time, dose: 10.0 mg/kg/injection, schedule: Q01DX009 (ip), vehicle: saline): 96 % of control | T/C (endpoint: mean survival time, dose: 20.0 mg/kg/injection, schedule: Q01DX009 (ip), vehicle: saline): 103 % of control | T/C (endpoint: mean survival time, dose: 40.0 mg/kg/injection, schedule: Q01DX009 (ip), vehicle: saline): 111 % of control | T/C (endpoint: mean survival time, dose: 80.0 mg/kg/injection, schedule: Q01DX009 (ip), vehicle: saline): 90 % of control
